Assay results reported in patent publication EP1052287A2, “Complex for transferring an anionic substance of interest into a cell” (TRANSGENE S.A., priority 1999, dated 2000).
Where no end group is shown, it is not given here.

Assays:
[1] = system: plasmid pTG11236; test: Gel retardation assay (Example 4); type: binding
Procedure: (§1) Gel retardation assay was performed with C1qA (4-26) (SEQ ID NO:1) in several buffers: PBS, TBS, 5% glucose, or ultrafiltrated serum (YM10 Amicon membrane). DNA and peptides have been mixed at charge ratios [-/+] of [1:4], [1:1] and [1:0.2].
Gel retardation assay was performed with peptides SEQ ID NO: 1, SEQ ID NO: 2, SEQ ID NO: 3, SEQ ID NO: 7, SEQ ID NO: 8, SEQ ID NO: 9, SEQ ID NO: 10 , SEQ ID NO: 11, SEQ ID NO: 12, SEQ ID NO: 13, in various media : 5% glucose, 6% Elohes (Fresenius Kabi) and ultrafiltrated serum (YM10 Amicon membrane). Technical conditions are similar to Example 2. DNA and peptides have been mixed at 0.36, 1.44 and 1.8 nmoles of peptide per µg of DNA which correspond to the following charge ratios N/P: […]

[2] = Size of peptide/DNA complexes by quasi-elastic light scattering; type: physicochemical; details: complexes (-/+) [1:4], 6 µg DNA, 500 µl
Procedure: Sizes of complexes prepared with a plasmid DNA (PTG11033; see EP-A 890 32, 9.6 kb) and the C1qA (4-26) peptide (SEQ ID NO:1)see Table I) were evaluated. Complexes were formulated either in 5% glucose or in ultrafiltrated foetal calf serum (YM10 Amicon membrane). Formulation was made in 500 µl buffer, with 6 µg DNA and the quantity of peptide necessary to form a [1:4], [-:+] complex. As a control a polylysine SV40 NLS peptide was used. […] When oxidized, the dimerized C1qA peptide could form even smaller complexes, whatever the formulation buffer used. The reasonable sizes obtained in ultrafiltrated serum with C1qA peptides is an advantage for the use of this peptide rather than polylysine derivatives.
Complexes (-/+):[1:4], 6 µg DNA, 500 µl. Size measures: quasi-elastic light scattering, COULTER N4+.

[3] = system: plasmid pTGl1033; test: Gel retardation assay, agarose gel electrophoresis (Example 2); type: binding
Procedure: as §1

[4] = 1.44 nmoles of peptide per µg of DNA
[5] = 1.8 nmoles of peptide per µg of DNA

Substance | retardation of the complexed plasmid DNA [1, 4] | retardation of the complexed plasmid DNA [1, 5] | Sizes in 5% glucose [2] | Sizes in ultrafiltrated serum [2] | gel retardation of DNA ([3]; charge ratio [-/+] [1:1]) | gel retardation of DNA ([3]; charge ratio [-/+] [1:4], PBS, TBS, 5% glucose or ultrafiltrated serum, 0.8% agarose, TBE)
SEQ ID NO: 3: C1qA (76-92) peptide (GIKGTKGSPGNIKDQPR; UniProt P02745 98-114, looked up, fragment) | complete retardation | complete retardation | – | – | – | –
SP-1052 oxidized: oxidized, dimerized C1qA (4-26) peptide (CRAPDGKKGEAGRPGRRGRPGLK; also: oxidized disulfide-linked dimer; UniProt P02745 26-48, looked up, fragment) | – | – | 200 nm | 300 nm | – | –
SEQ ID NO: 1: synthetic polypeptide consisting of SEQ ID NO:1, C1qA (4-26) of the C1q subunit of C1 complement factor (CRAPDGKKGEAGRPGRRGRPGLK; UniProt P02745 26-48, looked up, fragment) | complete retardation | complete retardation | 1µm | 300-500 nm | significative retardation | strong association of DNA to the peptides
